# Values quoted from earlier work as cited in EP1844783A1 (priority 2006, dated 2007).
# System: EAE
# Conditions: Craner et al., 2005
smiles,measurement,value
O=C1NC(=O)C(c2ccccc2)(c2ccccc2)N1 [phenytoin],ameliorates the inflammatory cell infiltrate in EAE,75%
